What all share (assay type): cell-based, C. elegans
In assay [1] the target is T1, NPR-4b (Caenorhabditis elegans, UniProt A0A078BTK0).
T1 sequence (A0A078BTK0 1-376): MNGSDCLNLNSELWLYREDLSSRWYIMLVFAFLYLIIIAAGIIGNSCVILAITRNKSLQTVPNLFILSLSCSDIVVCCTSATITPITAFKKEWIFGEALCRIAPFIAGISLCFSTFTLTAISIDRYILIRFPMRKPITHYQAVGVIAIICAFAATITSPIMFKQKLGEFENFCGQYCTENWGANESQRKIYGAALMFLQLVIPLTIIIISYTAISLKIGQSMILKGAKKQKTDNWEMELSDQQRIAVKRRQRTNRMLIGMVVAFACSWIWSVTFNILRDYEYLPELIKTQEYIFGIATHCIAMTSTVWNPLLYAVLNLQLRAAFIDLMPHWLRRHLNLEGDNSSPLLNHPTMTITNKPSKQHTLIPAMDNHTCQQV
The assay is described as follows: cAMP reporter gene assay, Gi/o (inhibition of forskolin-induced cAMP), NPR-4b. The settings on record: for cAMP assay Gi, NPR-4b: 4 h, lower = higher Gi/o activity, transfected HEK293, CRE-luciferase, mean of >=3 independent experiments; for cAMP, x-fold of forskolin (mean), NPR-4b: 1 µM forskolin set to 1.00, transiently transfected HEK293 cells, mean of at least three independent experiments. In short, it runs like this: (§1)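 HEK293 cells transiently co-transfected with receptor and CRE-luciferase reporter (pGL4.29), stimulated with peptides in serum-free DMEM for 4 h with 1 μM forskolin added for Gi/o readout. Luminescence measured after lysis; maximal signal taken as strongest response to any peptide at that receptor; mean ± SEM, ≥3 experiments.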

Assay [2] has as its target T2, NPR-5b (Caenorhabditis elegans, UniProt Q6F3C9).
T2 sequence (Q6F3C9 1-433): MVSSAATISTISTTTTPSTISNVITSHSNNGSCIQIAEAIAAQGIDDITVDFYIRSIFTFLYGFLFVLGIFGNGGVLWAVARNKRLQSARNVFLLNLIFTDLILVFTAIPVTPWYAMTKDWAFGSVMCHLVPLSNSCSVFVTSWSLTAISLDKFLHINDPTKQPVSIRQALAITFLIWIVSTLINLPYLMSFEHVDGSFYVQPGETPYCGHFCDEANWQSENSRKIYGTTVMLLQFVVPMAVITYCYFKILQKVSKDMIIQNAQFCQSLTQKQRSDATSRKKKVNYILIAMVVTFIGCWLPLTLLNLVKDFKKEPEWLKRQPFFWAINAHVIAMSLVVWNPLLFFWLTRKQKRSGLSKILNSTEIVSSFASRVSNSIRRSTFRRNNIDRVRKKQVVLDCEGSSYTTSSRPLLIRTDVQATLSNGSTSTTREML
Nature of the assay: cAMP reporter gene assay, Gi/o (with forskolin), NPR-5b. The settings on record: for cAMP assay Gi, NPR-5b: 4 h, transfected HEK293, CRE-luciferase, increase consistent with Gs coupling, mean of >=3 independent experiments; for cAMP, x-fold of forskolin (mean), NPR-5b: 1 µM forskolin set to 1.00, values > 1 = cAMP stimulation, transiently transfected HEK293 cells, mean of at least three independent experiments. In short, it runs like this:
as §1

Assay [3] has as its target T3, NPR-11 (Caenorhabditis elegans, UniProt Q18179).
T3 construct: expressed in transfected cells; host or cells: HEK293, transient
T3 sequence (Q18179 1-402): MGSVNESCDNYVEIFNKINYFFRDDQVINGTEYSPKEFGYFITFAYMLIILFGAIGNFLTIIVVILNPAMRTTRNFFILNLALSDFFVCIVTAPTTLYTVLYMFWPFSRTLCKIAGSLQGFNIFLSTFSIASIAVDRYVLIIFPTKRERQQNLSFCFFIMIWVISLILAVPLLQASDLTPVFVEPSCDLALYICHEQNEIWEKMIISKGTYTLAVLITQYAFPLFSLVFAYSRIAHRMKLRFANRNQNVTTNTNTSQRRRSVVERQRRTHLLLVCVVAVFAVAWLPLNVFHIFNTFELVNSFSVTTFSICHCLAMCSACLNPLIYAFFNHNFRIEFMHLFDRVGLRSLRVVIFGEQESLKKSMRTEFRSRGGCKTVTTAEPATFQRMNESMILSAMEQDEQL
Nature of the assay: cAMP reporter gene assay, Gi/o (inhibition of forskolin-induced cAMP), NPR-11. The settings on record: for cAMP assay Gi, NPR-11: 4 h, lower = higher Gi/o activity, transfected HEK293, CRE-luciferase, mean of >=3 independent experiments; for cAMP, x-fold of forskolin (mean), NPR-11: 1 µM forskolin set to 1.00, transiently transfected HEK293 cells, mean of at least three independent experiments. Summed up:
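Transient HEK293 co-transfection: receptor + pGL4.29 luc2P/CRE (1:1). Peptide stimulation 4 h, serum-free DMEM; +1 μM forskolin for Gi/o. OneGlo luminescence; fold basal or fold forskolin. Mean ± SEM, ≥3 experiments in triplicate.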
On the technique in general: In a reporter assay the amount or activity of a reporter protein is the signal.

For assay [4], the target named is T4, NPR-3 (Caenorhabditis elegans, UniProt P90745).
T4 construct: expressed in transfected cells; host or cells: HEK293
T4 sequence (P90745 1-376): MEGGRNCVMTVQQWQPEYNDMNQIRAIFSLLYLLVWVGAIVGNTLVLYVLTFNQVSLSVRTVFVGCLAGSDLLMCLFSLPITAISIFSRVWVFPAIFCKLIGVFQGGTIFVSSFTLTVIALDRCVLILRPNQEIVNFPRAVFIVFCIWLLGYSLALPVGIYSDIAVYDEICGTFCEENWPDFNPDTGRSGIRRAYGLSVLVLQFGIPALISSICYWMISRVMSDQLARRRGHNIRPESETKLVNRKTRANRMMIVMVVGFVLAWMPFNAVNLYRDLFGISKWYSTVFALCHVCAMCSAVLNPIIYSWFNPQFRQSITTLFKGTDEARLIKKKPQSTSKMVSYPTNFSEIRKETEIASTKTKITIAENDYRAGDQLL
Nature of the assay: cAMP reporter gene assay, Gi/o (inhibition of forskolin-induced cAMP), NPR-3. The settings on record: for cAMP assay Gi, NPR-3: 4 h, lower = higher Gi/o activity, transfected HEK293, CRE-luciferase, mean of >=3 independent experiments; for cAMP, x-fold of forskolin (mean), NPR-3: 1 µM forskolin set to 1.00, transiently transfected HEK293 cells, mean of at least three independent experiments. Here is the method:
Activation of Gs and Gi/o was assessed with a cAMP reporter gene assay. HEK293 cells grown to 70–80% confluency in 6-well plates were transiently co-transfected with vectors encoding the receptor and the cAMP reporter gene plasmid pGL4.29 [luc2P/CRE/Hygro] (Promega; 4 μg total, 1:1 ratio) using Metafectene Pro (3 μl/μg DNA; Biontex) following the manufacturer’s instructions. 16 h post transfection, the cells were seeded into white 384-well plates at a density of 20,000 cells/well. On the next day, the medium was removed and the cells were stimulated with 20 μl of peptide solution (or forskolin as positive control) in serum-free DMEM for 4 h. For measuring Gi/o activity, the peptide solutions additionally contained 1 μM forskolin to elevate cellular cAMP levels. After incubation, the luciferase substrate OneGlo in lysis buffer (Promega) was added and the luminescence was measured in a microplate reader Tecan Spark (Tecan). Data were analyzed with GraphPad Prism 5.03 and are shown as fold of basal or fold of forskolin in case of Gαi/o activity.
For in vitro activation, data is presented as mean ± SEM of at least three independent experiments conducted in technical triplicate. […] For the C. elegans NPRs, we considered the strongest response elicited by any of the peptides downstream of a particular receptor as the receptor’s maximal signal. This may or may not be the biological maximum that can be reached by the ‘true’ endogenous agonist. For the human receptors, the response to the established endogenous agonist reflected the maximal signal.

Setting [5] is: 0.1 µM peptide + 1 µM forskolin (set to 1.00).
Where [6] appears, read: 10 µM peptide + 1 µM forskolin (set to 1.00).

For the substance “APKPKFIRF-NH2 [FLP-5-1, C. elegans FMRFamide-like peptide, C-terminally amidated, synthesized by SPPS]”, the “cAMP assay Gi, NPR-4b” value in assay [1] (setting [5]) was 0.75 x-fold of forskolin; in assay [1] (setting [6]), 0.40 x-fold of forskolin. Moreover, the results for the “cAMP, x-fold of forskolin (mean), NPR-4b” value in assay [1] (0.1 µM peptide) and in assay [1] (10 µM peptide) were 0.73 x-fold of forskolin and 0.36 x-fold of forskolin, respectively. Also, the “cAMP assay Gi, NPR-5b” value in assay [2] (setting [5]) is 0.92 x-fold of forskolin; in assay [2] (setting [6]), 1.90 x-fold of forskolin. The results for the “cAMP, x-fold of forskolin (mean), NPR-5b” value in assay [2] (0.1 µM peptide) and in assay [2] (10 µM peptide) were 0.91 x-fold of forskolin and 1.96 x-fold of forskolin, respectively. For the same substance, the “cAMP assay Gi, NPR-11” value in assay [3] (setting [5]) is on record as 0.94 x-fold of forskolin; in assay [3] (setting [6]), 0.51 x-fold of forskolin. The “cAMP, x-fold of forskolin (mean), NPR-11” value in assay [3] (0.1 µM peptide) was 0.94 x-fold of forskolin; in assay [3] (10 µM peptide), 0.48 x-fold of forskolin. Besides, the entries for the “cAMP assay Gi, NPR-3” value in assay [4] (setting [5]) and in assay [4] (setting [6]) were 0.68 x-fold of forskolin and 0.87 x-fold of forskolin, respectively. Besides, the “cAMP, x-fold of forskolin (mean), NPR-3” value in assay [4] (0.1 µM peptide) was 0.66 x-fold of forskolin; in assay [4] (10 µM peptide), 0.86 x-fold of forskolin.

Source of the values: publication PMC6751662, “Pharmacological and functional similarities of the human neuropeptide Y system in C. elegans challenges phylogenetic views on the FLP/NPR system” (Cell Communication and Signaling : CCS, 2019).
